These results are taken from patent US12201640B2, “19-nor C3,3-disubstituted C21-n-pyrazolyl steroids and methods of use thereof” (Sage Therapeutics, Inc., priority 2013, dated 2025).

One assay addresses T1, GABAA-R (Homo sapiens, UniProt P14867+P47870).
T1 sequence (P14867 1-456): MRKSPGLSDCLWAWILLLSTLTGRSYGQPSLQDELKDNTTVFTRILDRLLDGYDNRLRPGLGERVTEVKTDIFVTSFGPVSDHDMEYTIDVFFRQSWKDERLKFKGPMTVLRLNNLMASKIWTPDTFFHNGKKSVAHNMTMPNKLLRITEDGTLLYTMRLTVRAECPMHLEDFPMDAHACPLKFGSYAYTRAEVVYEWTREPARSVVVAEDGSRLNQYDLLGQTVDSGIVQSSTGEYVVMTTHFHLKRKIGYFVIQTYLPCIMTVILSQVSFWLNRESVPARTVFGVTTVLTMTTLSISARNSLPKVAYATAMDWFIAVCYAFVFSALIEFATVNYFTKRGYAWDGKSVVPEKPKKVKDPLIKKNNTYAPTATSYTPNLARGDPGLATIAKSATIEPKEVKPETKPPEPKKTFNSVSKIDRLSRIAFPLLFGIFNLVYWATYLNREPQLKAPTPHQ
T1 sequence (P47870 1-512): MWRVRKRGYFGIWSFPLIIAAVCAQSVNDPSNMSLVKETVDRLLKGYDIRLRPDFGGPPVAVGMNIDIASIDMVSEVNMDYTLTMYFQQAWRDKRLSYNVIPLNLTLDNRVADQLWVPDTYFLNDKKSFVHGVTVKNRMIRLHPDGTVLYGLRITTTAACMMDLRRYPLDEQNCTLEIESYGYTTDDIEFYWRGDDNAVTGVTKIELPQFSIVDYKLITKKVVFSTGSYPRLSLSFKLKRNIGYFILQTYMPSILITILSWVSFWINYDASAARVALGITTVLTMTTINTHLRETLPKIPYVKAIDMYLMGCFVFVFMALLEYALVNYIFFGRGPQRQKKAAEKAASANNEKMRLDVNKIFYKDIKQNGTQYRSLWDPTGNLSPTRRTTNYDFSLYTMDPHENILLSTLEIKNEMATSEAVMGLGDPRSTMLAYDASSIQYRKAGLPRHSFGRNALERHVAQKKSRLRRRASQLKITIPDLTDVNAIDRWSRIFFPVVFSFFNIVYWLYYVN
The experiment in a line: Electrophysiological evaluation at GABAA-R (Table 2). In kind it is cell-based. The method, then: (§1) Patch Clamp Electrophysiology of Recombinant α1β2γ2 and α4β3δ GABAA Receptors
(§2) Cellular electrophysiology is used to measure the pharmacological properties of our GABAA receptor modulators in heterologous cell systems. Each compound is tested for its ability to affect GABA mediated currents at a submaximal agonist dose (GABA EC20=2 μM). LTK cells are stably transfected with the α1β2γ2 subunits of the GABA receptor and CHO cells are transiently transfected with the α4β3δ subunits via the Lipofecatamine method. Cells were passaged at a confluence of about 50-80% and then seeded onto 35 mm sterile culture dishes containing 2 ml culture complete medium without antibiotics or antimycotics. Confluent clusters of cells are electrically coupled (Pritchett et al., Science, 1988, 242, 1306-1308.). Because responses in distant cells are not adequately voltage clamped and because of uncertainties about the extent of coupling (Verdoorn et al., Neuron 1990, 4, 919-928.), cells were cultivated at a density that enables the recording of single cells (without visible connections to other cells).
(§3) Whole cell currents were measured with HEKA EPC-10 amplifiers using PatchMaster software or by using the high throughput QPatch platform (Sophion). Bath solution for all experiments contained (in mM): NaCl 137 mM, KCl 4 mM, CaCl2 1.8 mM, MgCl2 1 mM, HEPES 10 mM, D-Glucose 10 mM, pH (NaOH) 7.4. In some cases 0.005% cremophor was also added. Intracellular (pipette) solution contained: KCl 130 mM, MgCl2 1 mM, Mg-ATP 5 mM, HEPES 10 mM, EGTA 5 mM, pH 7.2. During experiments, cells and solutions were maintained at room temperature (19° C.-30° C.). For manual patch clamp recordings, cell culture dishes were placed on the dish holder of the microscope and continuously perfused (1 ml/min) with bath solution. After formation of a Gigaohm seal between the patch electrodes and the cell (pipette resistance range: 2.5 MΩ-6.0 MΩ; seal resistance range: >1 GΩ) the cell membrane across the pipette tip was ruptured to assure electrical access to the cell interior (whole-cell patch-configuration). For experiments using the QPatch system, cells were transferred as suspension to the QPatch system in the bath solution and automated whole cell recordings were performed.
(§4) Cells were voltage clamped at a holding potential of −80 mV. For the analysis of test articles, GABA receptors were stimulated by 2 μM GABA after sequential pre-incubation of increasing concentrations of the test article. Pre-incubation duration was 30 s and the duration of the GABA stimulus was 2 s. Test articles were dissolved in DMSO to form stock solutions (10 mM). Test articles were diluted to 0.01, 0.1, 1, and 10 μM in bath solution. All concentrations of test articles were tested on each cell. The relative percentage potentiation was defined as the peak amplitude in response to GABA EC20 in the presence of the test article divided by the peak amplitude in response to GABA EC20 alone, multiplied by 100.

For another assay, the target named is T2, GABAA receptor α4β3δ (Homo sapiens, UniProt P28472+P48169).
T2 construct: expressed in transfected cells; host or cells: CHO cells (transient, lipofection)
T2 sequence (P48169 36-554): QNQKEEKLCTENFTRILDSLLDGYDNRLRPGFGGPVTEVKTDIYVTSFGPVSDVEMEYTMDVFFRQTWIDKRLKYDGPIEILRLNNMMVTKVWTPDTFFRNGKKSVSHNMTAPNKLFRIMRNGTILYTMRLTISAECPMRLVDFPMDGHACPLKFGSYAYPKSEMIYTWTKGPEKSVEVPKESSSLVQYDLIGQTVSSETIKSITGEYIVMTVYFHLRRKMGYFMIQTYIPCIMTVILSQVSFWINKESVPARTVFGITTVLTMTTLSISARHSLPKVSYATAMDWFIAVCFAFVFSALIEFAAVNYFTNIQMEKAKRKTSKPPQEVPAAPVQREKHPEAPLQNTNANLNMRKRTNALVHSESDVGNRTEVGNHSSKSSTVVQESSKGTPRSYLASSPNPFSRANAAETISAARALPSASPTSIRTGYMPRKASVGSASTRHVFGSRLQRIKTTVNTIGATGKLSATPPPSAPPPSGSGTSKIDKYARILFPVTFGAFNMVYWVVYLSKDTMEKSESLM
T2 sequence (P28472 26-473): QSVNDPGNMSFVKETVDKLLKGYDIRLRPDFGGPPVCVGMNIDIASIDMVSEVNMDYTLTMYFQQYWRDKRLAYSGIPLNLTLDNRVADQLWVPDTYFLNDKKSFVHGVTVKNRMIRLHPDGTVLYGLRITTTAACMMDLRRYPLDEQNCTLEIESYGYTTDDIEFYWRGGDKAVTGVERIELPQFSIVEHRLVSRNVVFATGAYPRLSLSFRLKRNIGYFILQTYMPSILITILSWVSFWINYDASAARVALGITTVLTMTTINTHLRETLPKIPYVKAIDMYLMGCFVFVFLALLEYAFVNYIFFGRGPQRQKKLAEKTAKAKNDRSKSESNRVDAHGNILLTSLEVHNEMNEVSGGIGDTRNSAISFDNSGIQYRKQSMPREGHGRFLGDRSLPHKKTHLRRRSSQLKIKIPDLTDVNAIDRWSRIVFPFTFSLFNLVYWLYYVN
T2 sequence (O14764 25-452 partner): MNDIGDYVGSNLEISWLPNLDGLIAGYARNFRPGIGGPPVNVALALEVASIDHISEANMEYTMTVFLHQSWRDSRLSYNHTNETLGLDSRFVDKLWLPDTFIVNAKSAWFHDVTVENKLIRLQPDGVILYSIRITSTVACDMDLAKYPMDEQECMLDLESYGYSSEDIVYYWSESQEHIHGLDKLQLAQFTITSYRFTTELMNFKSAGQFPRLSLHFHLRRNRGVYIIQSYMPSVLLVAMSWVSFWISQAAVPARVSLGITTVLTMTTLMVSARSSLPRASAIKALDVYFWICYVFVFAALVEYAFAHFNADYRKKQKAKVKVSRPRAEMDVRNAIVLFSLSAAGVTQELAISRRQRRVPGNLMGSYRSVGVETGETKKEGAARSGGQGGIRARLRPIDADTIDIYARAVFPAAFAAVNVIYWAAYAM
As to the kind of experiment: Patch clamp electrophysiology, manual patch in CHO cells. The assay is classed as cell-based. As to conditions: 10 μM test article, GABA EC20 2 μM, read-out: GABA (α4β3δ) Manual patch in CHO, % efficacy at 10 μM. The method, then:
as §1, §2, §3, §4
Background: The patch-clamp technique gives a direct electrical read-out from membranes.

Setting [1] is: GABAA-R electrophysiology, read-out: EC50.

Like-named read-outs stand apart in the source and are kept apart here.

As for `C[C@@]1(O)CC[C@H]2[C@H](CC[C@@H]3[C@@H]2CC[C@]2(C)[C@@H](C(=O)Cn4cccn4)CC[C@@H]32)C1` [SA-13], the Emax at GABAA-R (GABAA-R electrophysiology) is 0 to 500%. In addition, at GABAA-R (setting [1]), the EC50 (usually the midpoint of the concentration-response curve) was 0.5 to 1 µM. Besides, the Emax at 10 µM at GABAA receptor α4β3δ is more than 500%.
For `C[C@@]1(O)CC[C@H]2[C@H](CC[C@@H]3[C@@H]2CC[C@]2(C)[C@@H](C(=O)Cn4cc(C#N)cn4)CC[C@@H]32)C1` [SA-4], the EC50 on GABAA-R was 0.1 to 0.5 µM. Moreover, the Emax on GABAA-R (GABAA-R electrophysiology) fell in the range of 0 to 500%. For the same compound, the Emax at 10 µM on GABAA receptor α4β3δ was in the range of 100 to 500%.
Consider `Cc1cnn(CC(=O)[C@H]2CC[C@H]3[C@@H]4CC[C@@H]5C[C@](C)(O)CC[C@@H]5[C@H]4CC[C@]23C)c1` [SA-6], for which, at GABAA-R (GABAA-R electrophysiology), the Emax lay in the range of 0 to 500%. At GABAA-R (setting [1]), the 50% effective concentration (EC50) is 0.1 to 0.5 µM. For the same compound, the Emax at 10 µM on GABAA receptor α4β3δ was more than 500%.
